# Test results taken from patent US20120149694A1, “Substituted piperidines” (BAYER PHARMA AKTIENGESELLSCHAFT, priority 2009, published 2012).
# Biological target: T1, human protease activated receptor 1 (PAR-1) (Homo sapiens, UniProt P25116)
# T1 construct: the cell stably expresses the endogenous human PAR-1 receptor; endogenous in cells; host or cells: HEK293-derived recombinant cell line expressing mitochondrial aequorin
# T1 sequence (P25116 22-425): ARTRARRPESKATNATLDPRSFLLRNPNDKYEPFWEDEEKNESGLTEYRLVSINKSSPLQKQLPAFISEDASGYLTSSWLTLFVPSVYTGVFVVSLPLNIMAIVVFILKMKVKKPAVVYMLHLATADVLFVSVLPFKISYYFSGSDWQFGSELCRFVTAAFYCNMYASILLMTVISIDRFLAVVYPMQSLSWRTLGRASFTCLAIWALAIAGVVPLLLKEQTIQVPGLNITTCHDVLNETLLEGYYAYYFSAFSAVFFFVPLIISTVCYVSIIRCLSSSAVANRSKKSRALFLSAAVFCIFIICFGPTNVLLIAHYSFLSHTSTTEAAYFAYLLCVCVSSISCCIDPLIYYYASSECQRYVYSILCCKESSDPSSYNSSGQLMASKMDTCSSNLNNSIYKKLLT
# Assay: Cellular functional in vitro test (PAR-1 antagonism, aequorin luminescence calcium readout)
# Assay type: cell-based
# Settings: recombinant HEK293-derived aequorin cell line with endogenous PAR-1; PAR-1 agonist added at its EC50, 5 min after test substance
# Description: A recombinant cell line is used to identify antagonists of the human protease activated receptor 1 (PAR-1) and to quantify the activity of the substances described herein. The cell is originally derived from a human embryonal kidney cell (HEK293; ATCC: American Type Culture Collection, Manassas, Va. 20108, USA). The test cell line constitutively expresses a modified form of the calcium-sensitive photoprotein aequorin which, after reconstitution with the cofactor coelenterazine, emits light when the free calcium concentration in the inner mitochondrial compartment is increased (Rizzuto R, Simpson A W, Brini M, Pozzan T.; Nature 1992, 358, 325-327). Additionally, the cell stably expresses the endogenous human PAR-1 receptor and the endogenous purinergic receptor P2Y2. The resulting PAR-1 test cell responds to stimulation of the endogenous PAR-1 or P2Y2 receptor with an intracellular release of calcium ions, which can be quantified through the resulting aequorin luminescence with a suitable luminometer (Milligan G, Marshall F, Rees S, Trends in Pharmacological Sciences 1996, 17, 235-237).
# For the testing of the substance specificity, the effect thereof after activation of the endogenous PAR-1 receptor is compared with the effect after activation of the endogenous purinergic P2Y2 receptor which utilizes the same intracellular signal path.
# Test procedure: The cells are plated out two days (48 h) before the test in culture medium (DMEM F12, supplemented with 10% FCS, 2 mM glutamine, 20 mM HEPES, 1.4 mM pyruvate, 0.1 mg/ml gentamycin, 0.15% Na bicarbonate; BioWhittaker Cat.# BE04-687Q; B-4800 Verviers, Belgium) in 384-well microtitre plates and kept in a cell incubator (96% atmospheric humidity, 5% v/v CO2, 37° C.). On the day of the test, the culture medium is replaced by a tyrode solution (in mM: 140 sodium chloride, 5 potassium chloride, 1 magnesium chloride, 2 calcium chloride, 20 glucose, 20 HEPES), which additionally contains the cofactor coelenterazine (25 μM) and glutathione (4 mM), and the microtitre plate is then incubated for a further 3-4 hours. The test substances are then pipetted onto the microtitre plate, and 5 minutes after the transfer of the test substances into the wells of the microtitre plate the plate is transferred into the luminometer, a PAR-1 agonist concentration which corresponds to EC50 is added and the resulting light signal is immediately measured in the luminometer. To distinguish an antagonist substance action from a toxic action, the endogenous purinergic receptor is immediately subsequently activated with agonist (ATP, final concentration 10 μM) and the resulting light signal is measured.
row,IC50 [µM],SMILES
1,0.177,"CC(C)(C)C(=O)NCC1CC(c2ccc(C(F)(F)F)cc2)CN(C(=O)N2CCOCC2)C1 (racemic) [Example 1, 2,2-Dimethyl-N-({1-(morpholin-4-ylcarbonyl)-5-[4-(trifluoromethyl)phenyl]piperidin-3-yl}methyl)propaneamide]"
2,0.056,"O=C(CC1CC(c2ccc(C(F)(F)F)cc2)CN(C(=O)N2CCOCC2)C1)Nc1ccccc1 (racemic) [Example 15, 2-{1-(Morpholin-4-ylcarbonyl)-5-[4-(trifluoromethyl)phenyl]piperidin-3-yl}-N-phenylacetamide]"
3,0.003,"O=C(N1CCOCC1)N1CC(CSc2cccc(F)c2)CC(c2ccc(C(F)(F)F)cc2)C1 (racemic) [Example 40, (3-{[(3-Fluorophenyl)sulphanyl]methyl}-5-[4-(trifluoromethyl)phenyl]piperidin-1-yl)(morpholin-4-yl)methanone]"
4,0.024,"O=C(N1CCOCC1)N1CC(CS(=O)(=O)C2CCCC2)CC(c2ccc(C(F)(F)F)cc2)C1 (racemic) [Example 48, {3-[(Cyclopentylsulphonyl)methyl]-5-[4-(trifluoromethyl)phenyl]piperidin-1-yl}(morpholin-4-yl)methanone]"
5,0.008,"CS(=O)(=O)NCC1CC(c2ccc(C(F)(F)F)cc2)CN(C(=O)N2CCOCC2)C1 (single isomer, unassigned) [Example 6, N-({1-(Morpholin-4-ylcarbonyl)-5-[4-(trifluoromethyl)phenyl]piperidin-3-yl}methyl)methanesulphonamide]"
